The text below walks through data of PMC4841789, “Synthesis and pharmacological evaluation of mono-arylimidamides as antileishmanial agents” (Bioorganic & Medicinal Chemistry Letters, 2016).

Like-named read-outs stand apart in the source and are kept apart here.

Data set [1] deals with L. donovani LV82. Nature of the data set: Murine model of visceral leishmaniasis (liver parasitemia). Format: in vivo. The settings on record: L. donovani-infected mice; for suppression (inhibition) of liver parasitemia: i.p. 30 mg/kg/day for 5 days, vs untreated control. How it is done:
(§1) Compounds 1b, 1d, and 1k were dissolved in water and administered to healthy BALB/c mice for assessment of their in vivo toxicity. […] Animals were infected with L. donovani LV82 promastigotes and then treated with different compounds one week post infection for five consecutive days. These mice were euthanized two weeks post infection and liver smear slides were prepared for the microscopic determination of parasitemia.
Compounds were administered i.p. (A and B) or p.o. (C) once daily for 5 days to infected mice. Results are presented as the percentage inhibition of liver parasitemia. Bars and error bars show the mean and standard deviation, respectively (n = 4) ^*p < 0.01, compared to untreated control, ^#p < 0.05, compared to untreated control.

In data set [2] the test system is Intracellular L. donovani. Kind of data set: Efficacy against intracellular L. donovani amastigotes. The settings on record: Leishmania donovani; means ± standard errors of at least three independent experiments. Format: cell-based. The source says:
(§2) Methods employed for the evaluation of the efficacy of mono-AIA target compounds against intracellular L. amazonensis[14] and intracellular L. donovani[15] and for toxicity to murine J774 macrophages[16] have been described previously. […] For ease in illustrating the antileishmanial SAR of this series of compounds, the central phenyl ring, the linker, and the terminal phenyl ring are referred to as rings A, B, and C, respectively (Fig. 1).

Data set [3] has as its system healthy BALB/c mice. Kind of data set: In vivo toxicity assessment in healthy BALB/c mice. The settings on record: i.p. 30 mg/kg/day for 5 days, dissolved in water. How it is done:
as §1

In data set [4] the test system is J774 macrophages. Nature of the data set: Toxicity to murine J774 macrophages (host cell counterscreen). Format: cell-based. Conditions: for selectivity index for intracellular Leishmania compared to J774 murine macrophages: IC50 vs J774 macrophages/IC50 vs Leishmania; for IC50: Mus musculus. The source says: For ease in illustrating the antileishmanial SAR of this series of compounds, the central phenyl ring, the linker, and the terminal phenyl ring are referred to as rings A, B, and C, respectively (Fig. 1).
In general terms: Counterscreens check selectivity or assay interference.

The test system of data set [5] is Intracellular L. amazonensis. Nature of the data set: Efficacy against intracellular L. amazonensis amastigotes. Format: cell-based. Conditions: Leishmania amazonensis.
Text: as §2

The nature of data set [6]: Plasma and tissue concentrations after a single oral dose. Format: in vivo. The settings on record: mouse, mice; for concentration at 24 h: 24 h after single oral dose 100 μmol/kg (40 mg/kg); for concentration at 1 h: 1 h after single oral dose 100 μmol/kg (40 mg/kg). As to the method: To confirm the exposure and accumulation of 1b in target organs after oral administration, plasma and tissue concentrations of this compound were determined at 1, 2 and 24 h after a single oral dose at 100 μmol/kg (or 40 mg/kg) in mice. Compound 1b accumulated in the target organs such as liver and spleen at higher concentrations (C1h = 12.6 and 4.7 μM, respectively) than in the plasma (C1h = 1.9 μM) (Fig. 3). At 24 h post dose, 1b concentrations decreased substantially to 0.14 μM in the plasma and 0.6–0.7 μM in the liver and spleen.
Figure 3 Concentration of 1b in liver ( [drawing 15] ), spleen ( [drawing 16] ), kidney ( [drawing 17] ), and plasma ( [drawing 18] ) after oral administration at a dose of 100 μmol/kg (or 40 mg/kg) to mice. Bars and error bars represent means and standard errors of triplicate determinations, respectively.

Data set [7] has as its system intracellular L. amazonensis amastigotes. Nature of the data set: Combination study of 1b and posaconazole against intracellular L. amazonensis amastigotes. The format is cell-based. Conditions: Leishmania amazonensis; combination experiment, absence of posaconazole; read-out: IC50 of 1b alone. The source says:
Our efforts to explore the mechanism of antileishmanial action of the bis-AIAs led to the observation that DB766 is synergistic with posaconazole against Leishmania donovani in vitro[17]; other investigators reported in vitro antileishmanial synergy between posaconazole and the squalene synthase inhibitor E5700.[18] A combination study with 1b and posaconazole was thus performed against intracellular L. amazonensis amastigotes. […] Instead, the method described by Peters et al.[23] was employed to determine whether posaconazole enhances the potency of 1b. […] Although both assays involved incubating infected murine peritoneal macrophages with posaconazole for 72 h, de Macedo-Silva exposed peritoneal macrophages to L. amazonensis for a shorter time compared to our studies prior to removing extracellular parasites (2 h vs overnight). […] Thus, a likely explanation for the discrepancy between IC50 values for posaconazole against intracellular L. amazonensis in the two studies is the differences in assay conditions employed.
Figure 4 In vitro interactions between 1b and posaconazole against intracellular L. amazonensis. Results are presented as the IC50 of 1b alone and in different combinations. Bars and error bars show the mean and standard deviation of three independent experiments.

Where [8] appears, read: murine J774 macrophages, means ± standard errors of at least three independent experiments, read-out: IC50 J774 macrophages.
The mark [9] stands for this setting: means ± standard errors of at least three independent experiments, values marked b: means ± range of two experiments, read-out: IC50 Intracellular L. amazonensis.

With `CS(=O)(=O)O.N=C(Nc1ccc(-c2ccc(-c3ccccc3)o2)c(OC2CCCC2)c1)c1ccccn1` [Compound 1k], in data set [1], the “suppression (inhibition) of liver parasitemia” value (“suppression (inhibition)” below) stood at 20%. Also, the 50% inhibitory concentration (IC50) (as a rule, the concentration at which inhibition is half-maximal) amounted to 0.17 ± 0.04 µM in data set [2], 13 µM in data set [4] (setting [8]) and 0.14 ± 0.01 µM in data set [5] (setting [9]). In addition, the in vivo tolerability entry in data set [3] is “well tolerated”. In addition, the “selectivity index for intracellular Leishmania compared to J774 murine macrophages” value (from here on “selectivity index”) in data set [4] was at least 25.
`CC[C@@H]([C@H](C)O)n1ncn(-c2ccc(N3CCN(c4ccc(OC[C@@H]5CO[C@@](Cn6cncn6)(c6ccc(F)cc6F)C5)cc4)CC3)cc2)c1=O` [posaconazole, reference compound]: the IC50 in data set [5] (Peritoneal macrophage, infected murine peritoneal macrophages, 72 h, low solubility at higher concentrations, read-out: IC50 against intracellular L. amazonensis) was above 10 µM.
With `CC(C)Oc1cc(NC(=N)c2ccccn2)ccc1-c1ccc(-c2cncnc2)o1` [Compound 1c], the IC50 was 2.1 ± 0.4 µM in data set [2], above 20 µM in data set [4] (setting [8]) and 1.1 ± 0.3 µM in data set [5] (setting [9]).
On to `CCCCCCCCCCCCCCCCOP(=O)([O-])OCC[N+](C)(C)C` [miltefosine, reference compound], for which the “inhibition of liver parasitemia” value in data set [1] (i.p. 10 mg/kg/day for five days, 10 mg/kg/day) is recorded as above 90%; in data set [1] (i.p. 10 mg/kg/day for five days, listed as Milt, 10 mg/kg/day), 99%; in data set [1] (i.p. 10 mg/kg/day for five days, listed as Miltefosine, 10 mg/kg/day) it was 98%; in data set [1] (p.o. 10 mg/kg/day for five days, 10 mg/kg/day), above 90%; in data set [1] (p.o. 10 mg/kg/day for five days, listed as Milt, 10 mg/kg/day) it was 96%.
As to `CC(C)Oc1cc(NC(=N)c2ccccn2)ccc1-c1ccc(-c2ccncc2)o1` [Compound 1f], the IC50 came to 2.6 ± 0.1 µM in data set [2], 22 µM in data set [4] (setting [8]) and 2.7 ± 0.2 µM in data set [5] (setting [9]).
In the case of `CCOc1cc(NC(=N)c2ccccn2)ccc1-c1ccc(-c2ccccc2)o1` [Compound 1l], the IC50 in data set [2] turned out to be 0.85 ± 0.17 µM; in data set [4] (setting [8]), 6.6 ± 0.6 µM; in data set [5] (setting [9]), 0.98 ± 0.07 µM.
For `CC(C)Oc1cc(NC(=N)c2ccccn2)ccc1-c1ccc(-c2ccc(F)cc2)o1` [Compound 1h] the same measures were 1.1 ± 0.1 µM, 8 ± 0.1 µM and 0.92 ± 0.19 µM.
In the case of `COc1cc([C@@H]2c3cc4c(cc3[C@H](O)[C@H]3COC(=O)[C@H]23)OCO4)cc(OC)c1OC` [podophyllotoxin, reference compound], the IC50 in data set [4] (J774, read-out: IC50 J774 macrophages) came to 0.024 ± 0.005 µM.
Regarding `CC(C)Oc1cc(NC(=N)c2ncccn2)ccc1-c1ccc(-c2ccccc2)o1` [Compound 1p], the IC50 in data set [2] was 0.44 ± 0.06 µM; in data set [4] (setting [8]) it was 12 µM; in data set [5] (setting [9]) it was 0.65 ± 0.16 µM.
On the same counts, the results for `COc1cc(NC(=N)c2ccccn2)ccc1-c1ccc(-c2ccccc2)o1` [Compound 1m] are 1.4 ± 0.3 µM, 9 ± 2 µM and 3.7 ± 1.3 µM.
`CC(C)Oc1cc(NC(=N)c2ccccn2)ccc1-c1ccc(-c2ccccc2)o1.CS(=O)(=O)O` [Compound 1b, N-(3-isopropoxy-4-(5-phenylfuran-2-yl)phenyl)picolinimidamide methanesulfonate]: the “suppression (inhibition)” value in data set [1] came to 37%. For the same compound, the “inhibition of liver parasitemia” value is on record as 37% in data set [1] (p.o. 50 mg/kg once daily for 5 days) and 46% in data set [1] (p.o. 100 mg/kg/day for five days, vs control). The concentration at 24 h is 600 to 700 nM in data set [6] (liver and spleen, read-out: concentration in the liver and spleen at 24 h post dose); 140 nM in data set [6] (plasma, read-out: plasma concentration at 24 h post dose). In addition, the concentration at 1 h was found to be 12600 nM in data set [6] (liver, read-out: liver concentration C1h); 1900 nM in data set [6] (plasma, read-out: plasma concentration C1h); 4700 nM in data set [6] (spleen, read-out: spleen concentration C1h). The half-maximal inhibitory concentration (IC50) in data set [2] was determined as 0.31 ± 0.01 µM; in data set [7] it was 0.26 ± 0.05 µM; in data set [4] (setting [8]), 13 µM; in data set [5] (setting [9]), 0.13 ± 0.03 µM. For the same compound, the in vivo tolerability entry in data set [3] is given as “well tolerated”. Besides, in data set [4], the “selectivity index” value was at least 25.
As for `COc1ccccc1-c1ccc(-c2ccc(NC(=N)c3ccccn3)cc2OC(C)C)o1` [Compound 1i], the 50% inhibitory concentration (IC50) was 1.3 ± 0.1 µM in data set [2], 5.3 ± 1 µM in data set [4] (setting [8]) and 1.4 ± 0.2 µM in data set [5] (setting [9]).
With `CC(C)Oc1cc(-c2ccc(-c3ccccc3)o2)ccc1NC(=N)c1ccccn1` [Compound 1j], the IC50 in data set [2] came out at 1.4 ± 0.3 µM; in data set [4] (setting [8]), 13 µM; in data set [5] (setting [9]), 1.6 ± 0.3 µM.
On the same counts, the results for `CC(C)Oc1cc(NC(=N)c2ccccn2)ccc1-c1ccc(-c2ccccc2)s1` [Compound 1o] are 2.2 ± 0.5 µM, 6.9 ± 0.4 µM and 2.3 ± 0.3 µM.
In the case of `CC(C)Oc1cc(NC(=N)c2ccccn2)ccc1-c1ccc(-c2ccco2)o1.Cl` [Compound 1d], the “suppression (inhibition)” value in data set [1] amounted to 13%. The IC50 was determined as 0.34 ± 0.05 µM in data set [2], 8.5 ± 0.8 µM in data set [4] (setting [8]) and 0.25 ± 0.01 µM in data set [5] (setting [9]). Further, the in vivo tolerability result in data set [3] was “well tolerated”. In addition, the “selectivity index” value in data set [4] is recorded as at least 25.
On to `CC(C)Oc1cc(NC(=N)c2ccccn2)ccc1-c1cnc(-c2ccccc2)o1` [Compound 3], for which the IC50 in data set [2] turned out to be 1 µM; in data set [4] (setting [8]), 24 µM; in data set [5] (setting [9]) it was 0.59 ± 0.06 µM.
Turning to `C[C@@H]1[C@H](O)[C@@H](C)/C=C/C=C/C=C/C=C/C=C/C=C/C=C/[C@H](O[C@@H]2O[C@H](C)[C@@H](O)[C@H](N)[C@@H]2O)C[C@@H]2O[C@](O)(C[C@@H](O)C[C@@H](O)[C@H](O)CC[C@@H](O)C[C@@H](O)CC(=O)O[C@H]1C)C[C@H](O)[C@H]2C(=O)O` [amphotericin B, reference compound], the IC50 in data set [2] came to 0.04 ± 0.003 µM; in data set [5] (setting [9]) it was 0.12 ± 0.01 µM.
On to `N=C(Nc1ccc(-c2ccc(-c3ccccc3)o2)c(C(F)(F)F)c1)c1ccccn1` [Compound 1n], for which the values for the 50% inhibitory concentration (IC50) in data set [2], in data set [4] (setting [8]) and in data set [5] (setting [9]) were 6.1 ± 1.4 µM, above 20 µM and above 10 µM, respectively.
On the same counts, the results for `CC(C)Oc1cc(NC(=N)c2ccccn2)ccc1-c1ccco1` [Compound 1a] are 2.4 ± 0.3 µM, 22 µM and 2.1 ± 0.2 µM.
As to `CC(C)Oc1cc(NC(=N)c2ccccn2)ccc1-c1ccc(-c2cccnc2)o1` [Compound 1e], the IC50 in data set [2] is 1.2 ± 0.1 µM; in data set [4] (setting [8]), above 50 µM; in data set [5] (setting [9]), 0.9 ± 0.23 µM.
`COc1ccc(-c2ccc(-c3ccc(NC(=N)c4ccccn4)cc3OC(C)C)o2)cc1` [Compound 1g]: the figures for the IC50 in data set [2], in data set [4] (setting [8]) and in data set [5] (setting [9]) were 0.9 ± 0.15 µM, 6.7 ± 0.9 µM and 0.82 ± 0.31 µM, respectively.
On the same counts, the results for `COc1ccc(-n2cc(-c3ccc(NC(=N)c4ccccn4)cc3OC(C)C)nn2)cc1` [Compound 2] are 1.6 ± 0.2 µM, 16 µM and 2.9 ± 0.1 µM.
